{"source": "patent US20100178317A1", "about": "“Lens Care Solutions with Hyaluronic Acid” (priority 2009, published 2010)", "test": "Precipitate formation of polyquaternium-1 in hyaluronic acid compositions", "type": "physicochemical", "conditions": "polyquaternium-1 concentration beyond 3 ppm", "text": "One of the more common quaternary ammonium compounds is α-[4-tris(2-hydroxyethyl)-ammonium chloride-2-butenyl]poly[1-dimethyl ammonium chloride-2-butenyl]-ω-tris(2-hydroxyethyl) ammonium chloride, also referred to in the art as polyquaternium-1. Quaternary ammonium compounds are generally referred to in the art as “polyquatemium” disinfectants, and are identified by a particular number following the designation such as polyquaternium-1, polyquaternium-10 or polyquaternium-42. Polyquaternium-1 is present in the ophthalmic compositions from 0.5 ppm to 3 ppm. […] The precipitate is believed to be the complexation product of hyaluronic acid and polyquaternium-1."}
{"substance": "α-[4-tris(2-hydroxyethyl)-ammonium chloride-2-butenyl]poly[1-dimethyl ammonium chloride-2-butenyl]-ω-tris(2-hydroxyethyl) ammonium chloride [polyquaternium-1]", "values": [{"measurement": "compatibility with hyaluronic acid in the compositions", "result": "formation of a precipitate"}]}
